Converted amounts (≈) assume the structure as drawn.
What was measured:
Assay type in all cases: functional
Streptococcus pneumoniae [1] = assay: Antibacterial activity against penicillin-resistant Streptococcus pneumoniae PR44 by agar dilution method
Streptococcus pneumoniae [2] = assay: Antibacterial activity against penicillin-susceptible Streptococcus pneumoniae IID553 by agar dilution method
Staphylococcus aureus [3] = assay: Antibacterial activity against methicillin-sensitive Staphylococcus aureus Smith by agar dilution method
Staphylococcus aureus [4] = assay: Antibacterial activity against methicillin-resistant Staphylococcus aureus TK7 by agar dilution method
Enterococcus faecium = assay: Antibacterial activity against vancomycin-resistant Enterococcus faecium A2280 by agar dilution method
Haemophilus influenzae = assay: Antibacterial activity against Haemophilus influenzae IID983 by agar dilution method

SMILES	MIC (Streptococcus pneumoniae [1]) [µg/mL]	MIC (Streptococcus pneumoniae [2]) [µg/mL]	MIC (Staphylococcus aureus [3]) [µg/mL]	MIC (Staphylococcus aureus [4]) [µg/mL]	MIC (Enterococcus faecium) [µg/mL]	MIC (Haemophilus influenzae) [µg/mL]
CC(=S)NC[C@H]1CN(c2ccc(-c3ccc([C@@]4(C#N)[C@@H]5CNC[C@@H]54)nc3)c(F)c2)C(=O)O1	0.03 (≈ 0.0664 µM)	0.06 (≈ 0.133 µM)	0.06 (≈ 0.133 µM)	0.03 (≈ 0.0664 µM)	0.06 (≈ 0.133 µM)	2 (≈ 4.43 µM)
N#C[C@]1(c2ccc(-c3ccc(N4C[C@H](Cn5ccnn5)OC4=O)cc3F)cn2)[C@@H]2C[S+]([O-])C[C@@H]21 (some centres not stated)	0.06 (≈ 0.125 µM)	0.06 (≈ 0.125 µM)	0.06 (≈ 0.125 µM)	0.06 (≈ 0.125 µM)	0.125 (≈ 0.261 µM)	4 (≈ 8.36 µM)
N#C[C@]1(c2ccc(-c3ccc(N4C[C@H](Cn5ccnn5)OC4=O)cc3F)cn2)[C@@H]2CNC[C@@H]21	0.06 (≈ 0.135 µM)	0.06 (≈ 0.135 µM)	0.06 (≈ 0.135 µM)	0.06 (≈ 0.135 µM)	0.125 (≈ 0.281 µM)	2 (≈ 4.49 µM)
N#C[C@]1(c2ccc(-c3c(F)cc(N4C[C@H](Cn5ccnn5)OC4=O)cc3F)cn2)[C@@H]2CNC[C@@H]21	0.125 (≈ 0.27 µM)	0.125 (≈ 0.27 µM)	0.125 (≈ 0.27 µM)	0.125 (≈ 0.27 µM)	0.25 (≈ 0.539 µM)	4 (≈ 8.63 µM)
N#C[C@]1(c2c(F)cc(-c3ccc(N4C[C@H](Cn5ccnn5)OC4=O)cc3F)cc2F)[C@@H]2CNC[C@@H]21	1 (≈ 2.08 µM)	1 (≈ 2.08 µM)	0.5 (≈ 1.04 µM)	0.5 (≈ 1.04 µM)	0.25 (≈ 0.52 µM)	> 128
N#C[C@]1(c2ccc(-c3ccc(N4C[C@H](Cn5ccnn5)OC4=O)cc3)cn2)[C@@H]2C[S+]([O-])C[C@@H]21 (some centres not stated)	0.125 (≈ 0.271 µM)	0.125 (≈ 0.271 µM)	0.125 (≈ 0.271 µM)	0.125 (≈ 0.271 µM)	0.25 (≈ 0.543 µM)	8 (≈ 17.4 µM)
NC(=O)[C@]1(c2ccc(-c3ccc(N4C[C@H](Cn5ccnn5)OC4=O)cc3F)cn2)[C@@H]2CNC[C@@H]21	0.5 (≈ 1.08 µM)	1 (≈ 2.16 µM)	2 (≈ 4.32 µM)	2 (≈ 4.32 µM)	4 (≈ 8.63 µM)	
N#C[C@]1(c2ccc(-c3ccc(N4C[C@H](Cn5ccnn5)OC4=O)cc3F)cn2)[C@@H]2CN(C(=O)CO)C[C@@H]21	0.06 (≈ 0.119 µM)	0.06 (≈ 0.119 µM)	0.06 (≈ 0.119 µM)	0.06 (≈ 0.119 µM)	0.125 (≈ 0.248 µM)	4 (≈ 7.94 µM)
N#C[C@]1(c2ccc(-c3ccc(N4C[C@H](CNc5ccon5)OC4=O)cc3F)cn2)[C@@H]2CNC[C@@H]21	0.25 (≈ 0.543 µM)	0.25 (≈ 0.543 µM)	0.125 (≈ 0.271 µM)	0.125 (≈ 0.271 µM)	0.5 (≈ 1.09 µM)	> 16
CCC(=O)NC[C@H]1CN(c2ccc(-c3ccc([C@@]4(C#N)[C@@H]5CNC[C@@H]54)nc3)c(F)c2)C(=O)O1	0.125 (≈ 0.278 µM)	0.25 (≈ 0.556 µM)	0.25 (≈ 0.556 µM)	0.25 (≈ 0.556 µM)	0.25 (≈ 0.556 µM)	8 (≈ 17.8 µM)
COC(=S)NC[C@H]1CN(c2ccc(-c3ccc([C@@]4(C#N)[C@@H]5CNC[C@@H]54)nc3)c(F)c2)C(=O)O1	0.03 (≈ 0.0642 µM)	0.03 (≈ 0.0642 µM)	0.03 (≈ 0.0642 µM)	0.03 (≈ 0.0642 µM)	0.06 (≈ 0.128 µM)	0.5 (≈ 1.07 µM)
COC(=O)NC[C@H]1CN(c2ccc(-c3ccc([C@@]4(C#N)[C@@H]5CNC[C@@H]54)nc3)c(F)c2)C(=O)O1	0.125 (≈ 0.277 µM)	0.125 (≈ 0.277 µM)	0.125 (≈ 0.277 µM)	0.125 (≈ 0.277 µM)	0.125 (≈ 0.277 µM)	4 (≈ 8.86 µM)
CN1C[C@@H]2[C@H](C1)[C@@]2(C#N)c1ccc(-c2ccc(N3C[C@H](Cn4ccnn4)OC3=O)cc2F)cn1	0.06 (≈ 0.131 µM)	0.06 (≈ 0.131 µM)	0.06 (≈ 0.131 µM)	0.06 (≈ 0.131 µM)	0.25 (≈ 0.544 µM)	4 (≈ 8.71 µM)
N#C[C@]1(c2ccc(-c3ccc(N4C[C@H](Cn5ccnn5)OC4=O)cc3)cn2)[C@@H]2CS(=O)(=O)C[C@@H]21	0.06 (≈ 0.126 µM)	0.06 (≈ 0.126 µM)	0.06 (≈ 0.126 µM)	0.06 (≈ 0.126 µM)	0.125 (≈ 0.262 µM)	4 (≈ 8.39 µM)
N#C[C@]1(c2ccc(-c3c(F)cc(N4C[C@H](Cn5ccnn5)OC4=O)cc3F)cn2)[C@@H]2COC[C@@H]21	0.125 (≈ 0.269 µM)	0.25 (≈ 0.538 µM)	0.06 (≈ 0.129 µM)	0.06 (≈ 0.129 µM)	0.25 (≈ 0.538 µM)	4 (≈ 8.61 µM)
N#C[C@]1(c2ccc(-c3ccc(N4C[C@H](Cn5ccnn5)OC4=O)cc3F)cc2F)[C@@H]2CNC[C@@H]21	0.25 (≈ 0.541 µM)	0.25 (≈ 0.541 µM)	0.25 (≈ 0.541 µM)	0.125 (≈ 0.27 µM)	0.25 (≈ 0.541 µM)	16 (≈ 34.6 µM)
N#C[C@]1(c2ccc(-c3ccc(N4C[C@H](Cn5ccnn5)OC4=O)cc3)cn2)[C@@H]2CSC[C@@H]21	0.06 (≈ 0.135 µM)	0.125 (≈ 0.281 µM)	0.06 (≈ 0.135 µM)	0.06 (≈ 0.135 µM)	0.25 (≈ 0.562 µM)	8 (≈ 18 µM)
N#CN1C[C@@H]2[C@H](C1)[C@@]2(C#N)c1ccc(-c2ccc(N3C[C@H](Cn4ccnn4)OC3=O)cc2F)cn1	0.06 (≈ 0.128 µM)	0.06 (≈ 0.128 µM)	0.06 (≈ 0.128 µM)	0.06 (≈ 0.128 µM)	0.06 (≈ 0.128 µM)	2 (≈ 4.25 µM)

SMILES	MIC (Streptococcus pneumoniae [1]) [µg/mL]	MIC (Streptococcus pneumoniae [2]) [µg/mL]	MIC (Staphylococcus aureus [3]) [µg/mL]	MIC (Staphylococcus aureus [4]) [µg/mL]	MIC (Enterococcus faecium) [µg/mL]	MIC (Haemophilus influenzae) [µg/mL]
CC(=O)NC[C@H]1CN(c2ccc(N3CCOCC3)c(F)c2)C(=O)O1 [LINEZOLID]			1 (≈ 2.96 µM)	1 (≈ 2.96 µM)	2 (≈ 5.93 µM)	16 (≈ 47.4 µM)
N#C[C@]1(c2ccc(-c3c(F)cc(N4C[C@H](Cn5ccnn5)OC4=O)cc3F)cn2)[C@@H]2C[S+]([O-])C[C@@H]21 (some centres not stated)	0.125 (≈ 0.252 µM)	0.125 (≈ 0.252 µM)	0.06 (≈ 0.121 µM)	0.06 (≈ 0.121 µM)	0.125 (≈ 0.252 µM)	8 (≈ 16.1 µM)
N#C[C@]1(c2ccc(-c3ccc(N4C[C@H](Cn5ccnn5)OC4=O)cc3)cn2)[C@@H]2COC[C@@H]21	0.125 (≈ 0.292 µM)	0.125 (≈ 0.292 µM)	0.06 (≈ 0.14 µM)	0.06 (≈ 0.14 µM)	0.25 (≈ 0.583 µM)	4 (≈ 9.34 µM)
N#C[C@]1(c2ccc(-c3ccc(N4C[C@H](COc5ccon5)OC4=O)cc3F)cn2)[C@@H]2CNC[C@@H]21	0.06 (≈ 0.13 µM)	0.125 (≈ 0.271 µM)	0.06 (≈ 0.13 µM)	0.06 (≈ 0.13 µM)	0.125 (≈ 0.271 µM)	4 (≈ 8.67 µM)
N#C[C@]1(c2ccc(-c3ccc(N4C[C@H](Cn5ccnn5)OC4=O)cc3F)cn2)[C@@H]2CSC[C@@H]21	0.06 (≈ 0.13 µM)	0.125 (≈ 0.27 µM)	0.06 (≈ 0.13 µM)	0.06 (≈ 0.13 µM)	0.25 (≈ 0.541 µM)	> 2
N#C[C@]1(c2ccc(-c3ccc(N4C[C@H](Cn5ccnn5)OC4=O)cc3)cn2)[C@@H]2CNC[C@@H]21	0.125 (≈ 0.292 µM)	0.125 (≈ 0.292 µM)	0.125 (≈ 0.292 µM)	0.125 (≈ 0.292 µM)	0.25 (≈ 0.585 µM)	2 (≈ 4.68 µM)
N[C@]1(c2ccc(-c3ccc(N4C[C@H](Cn5ccnn5)OC4=O)cc3F)cn2)[C@@H]2CNC[C@@H]21	0.5 (≈ 1.15 µM)	0.5 (≈ 1.15 µM)	1 (≈ 2.3 µM)	2 (≈ 4.59 µM)	2 (≈ 4.59 µM)	32 (≈ 73.5 µM)
N#C[C@]1(c2ccc(-c3c(F)cc(N4C[C@H](Cn5ccnn5)OC4=O)cc3F)cn2)[C@@H]2CS(=O)(=O)C[C@@H]21	0.06 (≈ 0.117 µM)	0.06 (≈ 0.117 µM)	0.06 (≈ 0.117 µM)	0.06 (≈ 0.117 µM)	0.125 (≈ 0.244 µM)	4 (≈ 7.8 µM)
N#C[C@]1(c2ccc(-c3c(F)cc(N4C[C@H](Cn5ccnn5)OC4=O)cc3F)cn2)[C@@H]2CSC[C@@H]21	0.25 (≈ 0.52 µM)	0.25 (≈ 0.52 µM)	0.06 (≈ 0.125 µM)	0.06 (≈ 0.125 µM)	0.5 (≈ 1.04 µM)	> 16
N#C[C@]1(c2ccc(-c3ccc(N4C[C@H](Cn5ccnn5)OC4=O)cc3F)cn2)[C@@H]2COC[C@@H]21	0.06 (≈ 0.134 µM)	0.06 (≈ 0.134 µM)	0.06 (≈ 0.134 µM)	0.06 (≈ 0.134 µM)	0.25 (≈ 0.56 µM)	2 (≈ 4.48 µM)
N#C[C@]1(c2ccc(-c3ccc(N4C[C@H](Cn5ccnn5)OC4=O)cc3F)cn2)[C@@H]2CS(=O)(=O)C[C@@H]21	0.06 (≈ 0.121 µM)	0.125 (≈ 0.253 µM)	0.06 (≈ 0.121 µM)	0.125 (≈ 0.253 µM)	0.06 (≈ 0.121 µM)	4 (≈ 8.09 µM)
N#C[C@]1(c2ccc(-c3ccc(N4C[C@H](Cn5ccnn5)OC4=O)cc3F)cc2)[C@@H]2CNC[C@@H]21	0.06 (≈ 0.135 µM)	0.125 (≈ 0.281 µM)	0.125 (≈ 0.281 µM)	0.06 (≈ 0.135 µM)	0.25 (≈ 0.562 µM)	4 (≈ 9 µM)
NC[C@]1(c2ccc(-c3ccc(N4C[C@H](Cn5ccnn5)OC4=O)cc3F)cn2)[C@@H]2CNC[C@@H]21	8 (≈ 17.8 µM)	4 (≈ 8.9 µM)	4 (≈ 8.9 µM)	4 (≈ 8.9 µM)	16 (≈ 35.6 µM)	128 (≈ 285 µM)
N#C[C@]1(c2ccc(-c3ccc(N4C[C@H](CNC(=O)C5CC5)OC4=O)cc3F)cn2)[C@@H]2CNC[C@@H]21	0.25 (≈ 0.542 µM)	0.25 (≈ 0.542 µM)	0.5 (≈ 1.08 µM)	0.25 (≈ 0.542 µM)	0.5 (≈ 1.08 µM)	8 (≈ 17.3 µM)
CC(=O)NC[C@H]1CN(c2ccc(-c3ccc([C@@]4(C#N)[C@@H]5CNC[C@@H]54)nc3)c(F)c2)C(=O)O1	0.06 (≈ 0.138 µM)	0.125 (≈ 0.287 µM)	0.125 (≈ 0.287 µM)	0.125 (≈ 0.287 µM)	0.25 (≈ 0.574 µM)	4 (≈ 9.19 µM)
N#Cc1ccc(N2C[C@@H]3[C@H](C2)[C@@]3(C#N)c2ccc(-c3ccc(N4C[C@H](Cn5ccnn5)OC4=O)cc3F)cn2)nc1	0.06 (≈ 0.11 µM)	0.125 (≈ 0.228 µM)	0.06 (≈ 0.11 µM)	0.06 (≈ 0.11 µM)	0.125 (≈ 0.228 µM)	> 2
N#C[C@]1(c2ccc(-c3ccc(N4C[C@H](CNC(=O)C(F)F)OC4=O)cc3F)cn2)[C@@H]2CNC[C@@H]21	0.06 (≈ 0.127 µM)	0.06 (≈ 0.127 µM)	0.125 (≈ 0.265 µM)	0.125 (≈ 0.265 µM)	0.25 (≈ 0.53 µM)	2 (≈ 4.24 µM)

Reference: ChEMBL document CHEMBL1140184, “Synthesis and structure-activity relationship studies of highly potent novel oxazolidinone antibacterials” (2008)
